Measured values published in patent US20190330167A1, “ACTIVATORS OF HIV LATENCY” (priority 2016, published 2019).
Read-outs that look alike come from different tables or passages of the source.

Columns and labels:
[1] = tested on: latent HIV in resting memory CD4+ T cells isolated by leukapheresis from HIV+ donors on antiretroviral therapy; assay type: cell-based, HIV-1; conditions: 72 hrs
Text: FIG. 41a. […] Resting memory CD4+ T cells isolated by leukapheresis from HIV+ donors on antiretroviral therapy were reactivated for 72 hrs using known LRAs including vorinostat (Vor) also known as suberanilohydroxamic acid, another hydroxamic acid panobinostat (Pan), and the depsipeptide Romidepsin (Rom) that are all HDACi, together with JQ1 (+) which is a thienotriazolodiazepine known to inhibit the BET family of bromodomain proteins including BRD2, BRD3, and BRD4, and compared with compounds according to the present invention DP#6 (Compound 41), DP#14 (Compound 7), and DP#16 (Compound 64).
FIG. 41c. […] Resting memory CD4+ T cells isolated by leukapheresis from HIV+ donors on antiretroviral therapy were reactivated for 72 hrs using known (vorinostat, Vor; panobinostat, Pan; romidepsin, Rom; and JQ1 (+)) and compounds according to the present invention (DP#6 (Compound 41), DP#14 (Compound 7), and DP#16 (Compound 64)).
FIG. 42c. […] Resting memory CD4+ T cells isolated by leukapheresis from HIV+ donors on antiretroviral therapy were reactivated for 72 hrs using known (JQ1 (+)) and compounds according to the present invention (DP#14 (Compound 7)) alone and in combination, and HIV-1 RNA detected through qPCR.
Total peripheral blood mononuclear cells (PBMC) were stored frozen in liquid nitrogen and prior to use, vials of frozen cells (0.5×10^8 PBMCs/vial or 1×10^8 PBMCs/vial) were quick thawed in a 42° C. water bath. Cells were promptly transferred to a 15 mL tube with 5 mL FBS dropwise then, then 6 mL of RF10 was added. Cells were pelleted at 300 g for 10 min at room temperature. Following aspiration, the cells were resuspended in RF10, pooled into a 50 mL tube which was topped up with RF10. PBMC were pelleted again at 300 g for 10 min at room temperature. Following aspiration, the cells were resuspended in PBS(−/−) and counted. CD4+ T cells were then isolated from 4×10^8 PBMCs that were pelleted and resuspended in PBS(−/−) at 1×10^7 cells/40 μL. 10 μL of CD4+ T cell Biotin-Antibody cocktail (Miltenyi Biotec) for every 1×10^7 cells was added and the mix refrigerated for 5 min. 30 μL of PBS(−/−) for every 1×10^7 cells was added, and 20 μL of the CD4+ T cell MicroBeads for every 1×10^7 cells was added and the mix refrigerated for 10 min. Unlabelled CD4+ T cells were then isolated by negative selection using magnetic separation. CD4+ T cells were then counted before being diluted to 4×10^6 cells/500 μL in RF10 for each condition and seeded into a 48 well plate.
Latent HIV was reactivated in the presence of the HIV integrase inhibitor Raltagravir (Ral) to prevent any further rounds of infection. Ral was made to [2 μM] in RF10+IL-2 (2 U/mL), and used to make 1 mL preparation of each drug up at [×2]. 500 μL of the [×2 Ral/IL-2/drug] was then added to the appropriate wells containing cells. Cells were transported to PC3 and incubated for 72 hrs.
Following reactivation, 800 μL of cell supernatant was transferred to labeled 1.5 mL screwcap tubes, pelletted at 800 g for 10 min then transferred to a second set of tubes and frozen for possible use at a later date. 800 μL of PBS(−/−) was added to each well to mix the cells and 50 μL of cells transferred to another set of tubes for live/dead staining and flow cytometry. Cells were pelleted at 400 g for 10 min, the media aspirated and cells resuspended in 100 μL of a [×1] APC-cy7 live/dead stain (Life technologies).

J.Lat10.6 T-cell line = experiment: Dose dependent toxicity in the J.Lat model; assay type: cell-based; conditions: dosed as high as 40 μM
[2] = tested on: HIV-1 gene expression in J.Lat10.6 latently infected T-cell line; experiment: cells; assay type: cell-based
Method: The J.Lat10.6 latently infected T-cell line was treated with 4 compounds of the present invention, DP#6 (Compound 41), DP#14 (Compound 7), DP#18 (Compound 65), and DP#19 (Compound 73) and reactivated for 48 hrs. HIV-1 reactivation was measured by flowcytometry for GFP expression. Error bars represent standard deviation of n=3 experiments.
FIG. 45. […] The J.Lat10.6 model of HIV-1 latency was treated with JQ1 (+) and DP#14 (Compound 7) alone at 10 μM and in combination, and the HIV-1 gene expression measured 48 hrs post treatment. Error bars represent standard deviation of n=3 experiments. OPTI represents media alone, without DP#14.
FIG. 47. […] The J.Lat10.6 model of HIV-1 latency was treated with PFI-1 and DP#14 alone at 10 μM and in combination, and the HIV-1 gene expression measured 48 hrs post treatment. Error bars represent standard deviation of n=3 experiments. OPTI represents media alone, without DP#14.
Compounds were also evaluated in a dose ranging titration with HIV latently infected cell lines (J.Lat 6.3 and 10.6). The specificity of the selected compounds in these cell line models, were measured by inserting a CMV-DS.Red reporter into these cells to co-ordinately measure HIV specific LTR-Green fluorescent protein and non-specific DS.Red expression during FACS analysis.
The J.Lat model of HIV-1 latency is a well-established model used widely and is described in detail in the following paper:
HIV reproducibly establishes a latent infection after acute infection of T cells in vitro, Eric Verdin et al, The EMBO Journal Vol. 22 No. 8 pp 1868-1877, 2003

## O=C(CCCOc1ccccc1)Nc1ncc(Br)s1 [Compound 7]
[1]; at 5 μM, normalized between unstimulated baseline and PMA as 100%
  induction of HIV-1 gene expression, % of the normalized value: 24%
[1]; normalized between unstimulated baseline and PMA positive control as 100%, concentration not given
  induction of HIV-1 gene expression, % of the normalized value: 24%
J.Lat10.6 T-cell line
  dose dependent toxicity: no such toxicity
[2]; Human immunodeficiency virus 1, J-Lat 10.6, 48 h, read-out: IC50 for reactivation of HIV-1 gene expression
  IC50: ~4.5 µM
[2]; J.Lat10.6 model, alone at 10 μM and in combination, 48 hrs post treatment
  percent of the cells treated with reactivated HIV-1 gene expression: 2.4%
